Experimental data as given in US4415566A, “Cephalosporin derivatives” (Boehringer Ingelheim GmbH, priority 1979, dated 1983).
In brackets after ≈: the same amount, converted by molar mass. Where two headings read alike, the source gives them in different places.

Experiments:
E. coli ATCC 11775 = experiment: In vivo activity in mice, E. coli infection; set-up: species or system Female NMRI mice; settings: Escherichia coli, ATCC11775, iPSC, sc, 168 h; E. coli infection i.p.; s.c. administration; per dose; observation 7 days; read-out: ED50 (dose at which 50% of the animals survived)
Experimental: (§1) A number of compounds of this invention were tested in vivo in mice against experimental infections. Bacteria E. coli ATCC 11775 and Psuedomonas aeruginosa Walter were used as pathogens. An intraperitoneal infection with 0.2 ml of a 5% suspension of the bacteria was induced. This corresponds to about 2×10^6 E. Coli germs and 8×10^5 pseudomonas germs/mouse. […] The groups with E. coli infection were treated with the test compound three times on the first day (1, 4, and 7 hours post infectionem) and for two days thereafter twice a day. The groups with the pseudomonas infection were treated with the test compound 6 times on the first day (1, 3, 6, 9, 12 and 15 hours post infectionem) and for two days thereafter twice a day. The observation time was in both cases 7 days. The results of these tests with representatives of the penicillins and cephalosporins according to the invention are shown in the following table: […]

[1] = test system: Staphylococcus aureus SG 511; experiment: Serial dilution test in the microtiter system (MIC), S. aureus SG 511; format: cell-based; settings: SG511, Table IV, S. aureus SG 511, 37° C., 18-20 hours, read-out: MIC
Experimental: (§2) These tests were performed according to the method of the serial dilution test in the microtiter system. The effect of the substances on bacteriostasis was examined in a fluid medium. […] A nutrient medium of the following composition was used. 10 gm of peptone, 8 gm of meat extract-oxoid, 3 gm of sodium chloride, 2 gm of sec. sodium phosphate were diluted with distilled water to […] (pH 7.2-7.4). Only in the test against streptococci 1% of glucose was added. The age of the primary cultures was about 20 hours. The standardization of the pathogen suspension was effected by using a photometer according to "Eppendorf" (test tube dismeter 14 mm, filter 546 nm) with the aid of the turbidity of a comparison suspension consisting of barium sulfate, this suspension being prepared by addition of 3.0 ml of 1% barium chloride solution to 97 ml of 1% sulfuric acid. After the standardization, streptococcus aronson were further diluted to a concentration of 1:15 and the other microorganisms to a concentration of 1:1500 by means of a sodium chloride solution.
(§3) 16 mg of the test substance were put into a 10 ml-measuring flask and filled up to the mark with the solvent. The further dilution series was standardized with distilled water or the respective solvent.
(§4) The cavities of the microtiter plates were filled with 0.2 ml of nutrient medium. Then, 0.01 ml of the corresponding test substance dilution was added and inoculated with 0.01 ml of the standardized suspension. The bacteria were incubated at 37° C. for 18-20 hours. Control tests merely using the solvent were carried out simultaneously.
(§5) The measurement was carried out macroscopically to determine the minimal inhibitory (threshold) concentration, i.e. the lower still bacteriostatically effective concentration.
(§6) Staphylococcus aureus SG 511, Escherichia coli ATCC 11 775, Pseudomonas aeruginosa Hamburgensis and Pseudomonas aeruginosa Walter, Serratia marcescens ATCC 13880, Klebsiella pneumoniae ATCC 10 031 and 272, Proteus mirabilis Hamburgensis, Proteus rettgeri, Enterbacter cloaceae ATCC 13 047 and E. Coli R+TEM (β-lactamase carrier).

[2] = test system: Klebsiella pneumoniae ATCC 10 031; experiment: Serial dilution test in the microtiter system (MIC), Klebs. pneum. ATCC 10031; format: cell-based
Experimental: as §2, §3, §4, §5, §6

[3] = test system: Psuedomonas aeruginosa Walter; experiment: In vivo activity in mice, Pseudomonas infection; set-up: species or system Female NMRI mice; settings: for ED50: Mus musculus, iPSC, sc, 168 h, Pseudomonas infection i.p., s.c. administration, per dose, observation 7 days, read-out: ED50 (dose at which 50% of the animals survived)
Experimental: as §1

Proteus rettgeri = experiment: Serial dilution test in the microtiter system (MIC), Prot. rettgeri; format: cell-based; settings: Providencia rettgeri; Table IV; Prot. rettg.; 37° C., 18-20 hours; read-out: MIC
Experimental: as §2, §3, §4, §5, §6

[4] = test system: Klebsiella pneumoniae 272; experiment: Serial dilution test in the microtiter system (MIC), Klebs. pneum. 272; format: cell-based
Experimental: as §2, §3, §4, §5, §6

[5] = test system: Serratia marcescens ATCC 13880; experiment: Serial dilution test in the microtiter system (MIC), Serrat. marcesc. ATCC 13880; format: cell-based; settings: ATCC13880, Table IV, Serr. marcesc. ATCC 13880, 37° C., 18-20 hours, read-out: MIC
Experimental: as §2, §3, §4, §5, §6

[6] = test system: Escherichia coli ATCC 11 775; experiment: Serial dilution test in the microtiter system (MIC), E. Coli ATCC 11775; format: cell-based; settings: Table IV, E. Coli ATCC 11775, 37° C., 18-20 hours, read-out: MIC
Experimental: as §2, §3, §4, §5, §6

[7] = test system: Enterbacter cloaceae ATCC 13 047; experiment: Serial dilution test in the microtiter system (MIC), Eb. cloaceae ATCC 13047; format: cell-based; settings: Table IV; Eb. cloaceae; 37° C., 18-20 hours; read-out: MIC
Experimental: as §2, §3, §4, §5, §6

[8] = test system: Proteus mirabilis Hamburgensis; experiment: Serial dilution test in the microtiter system (MIC), Prot. mirabilis; format: cell-based; settings: Table IV, Prot. mir. Hbg., 37° C., 18-20 hours, read-out: MIC
Experimental: as §2, §3, §4, §5, §6

[9] = test system: Pseudomonas aeruginosa Hamburgensis; experiment: Serial dilution test in the microtiter system (MIC), Pseud. aerug. Hbg.; format: cell-based
Experimental: as §2, §3, §4, §5, §6

[10] = test system: Pseudomonas aeruginosa Walter; experiment: Serial dilution test in the microtiter system (MIC), Pseud. aerug. Walter; format: cell-based
Experimental: as §2, §3, §4, §5, §6

[11] = Table IV, Klebs. pneum. ATCC 10031, 37° C., 18-20 hours, read-out: MIC
[12] = Table IV, Klebs. pneum. 272, 37° C., 18-20 hours, read-out: MIC

SMILES	ED50 (E. coli ATCC 11775) [mg/kg]	MIC [1] [µg/mL]	MIC [2, 11] [µg/mL]	ED50 [3] [mg/kg]	animals died ([3]; Pseudomonas infection, s.c., at 200 mg/kg)	MIC (Proteus rettgeri) [µg/mL]	MIC [4]; 272 [µg/mL]	MIC [5] [µg/mL]	MIC [6] [µg/mL]	MIC [7] [µg/mL]	MIC [8] [µg/mL]	MIC [9] [µg/mL]	MIC [4, 12] [µg/mL]	MIC [10] [µg/mL]	MIC [2] [µg/mL]
CO/N=C(\C(=O)N[C@@H]1C(=O)N2C(C(=O)O)=C(COC(N)=O)CS[C@H]12)c1ccco1 [Cefuroxim, reference compound]	37	1 (≈ 2.36 µM)	2 (≈ 4.71 µM)	> 200	all animals died	2 (≈ 4.71 µM)	4 (≈ 9.43 µM)	8 (≈ 18.9 µM)	8 (≈ 18.9 µM)	32 (≈ 75.4 µM)	0.5 (≈ 1.18 µM)	–	–	–	–
Cn1nnnc1SCC1=C(C(=O)O)N2C(=O)[C@@H](NC(=O)[C@H](NC(=O)Nc3cnc(NCc4ccco4)nc3O)c3ccc(O)cc3)[C@H]2SC1 [J]	0.3	0.5 (≈ 0.704 µM)	0.5 (≈ 0.704 µM)	6.3	–	0.5 (≈ 0.704 µM)	–	0.25 (≈ 0.352 µM)	0.25 (≈ 0.352 µM)	0.5 (≈ 0.704 µM)	0.12 (≈ 0.169 µM)	8 (≈ 11.3 µM)	0.5 (≈ 0.704 µM)	4 (≈ 5.64 µM)	–
Cn1nnnc1SCC1=C(C(=O)O)N2C(=O)[C@@H](NC(=O)[C@H](NC(=O)Nc3cnc(NCc4cccnc4)nc3O)c3ccc(O)cc3)[C@H]2SC1 [L]	0.2	0.5 (≈ 0.694 µM)	–	4.6	–	0.5 (≈ 0.694 µM)	–	0.25 (≈ 0.347 µM)	–	0.25 (≈ 0.347 µM)	–	–	0.25 (≈ 0.347 µM)	–	0.25 (≈ 0.347 µM)
Cn1nnnc1SCC1=C(C(=O)O)N2C(=O)[C@@H](NC(=O)[C@H](NC(=O)Nc3cnc(NCc4cccs4)nc3O)c3ccc(O)cc3)[C@H]2SC1 [N]	0.6	0.5 (≈ 0.689 µM)	0.25 (≈ 0.344 µM)	–	–	0.5 (≈ 0.689 µM)	–	0.25 (≈ 0.344 µM)	0.25 (≈ 0.344 µM)	0.25 (≈ 0.344 µM)	0.12 (≈ 0.165 µM)	8 (≈ 11 µM)	0.25 (≈ 0.344 µM)	4 (≈ 5.51 µM)	–
Cn1nnnc1SCC1=C(C(=O)O)N2C(=O)[C@@H](NC(=O)[C@H](NC(=O)Nc3cnc(Nc4ccc([S+](C)[O-])nc4)nc3O)c3ccc(O)cc3)[C@H]2SC1 (some centres unmarked) [O]	–	0.25 (≈ 0.325 µM)	0.25 (≈ 0.325 µM)	–	–	0.5 (≈ 0.65 µM)	–	0.5 (≈ 0.65 µM)	0.25 (≈ 0.325 µM)	0.5 (≈ 0.65 µM)	0.12 (≈ 0.156 µM)	4 (≈ 5.2 µM)	0.25 (≈ 0.325 µM)	4 (≈ 5.2 µM)	–
Cc1ncc(CNc2ncc(NC(=O)N[C@@H](C(=O)N[C@@H]3C(=O)N4C(C(=O)O)=C(CSc5nnnn5C)CS[C@H]34)c3ccc(O)cc3)c(O)n2)cn1 [P]	–	0.25 (≈ 0.34 µM)	0.25 (≈ 0.34 µM)	–	–	0.25 (≈ 0.34 µM)	–	0.25 (≈ 0.34 µM)	0.12 (≈ 0.163 µM)	0.5 (≈ 0.68 µM)	0.06 (≈ 0.0815 µM)	4 (≈ 5.44 µM)	0.5 (≈ 0.68 µM)	4 (≈ 5.44 µM)	–
